The values that follow are results of earlier work, collected in patent US4195171A, “Derivatives of an antibiotic XK-62-2 and process for the production thereof” (Abbott Laboratories, priority 1975, dated 1980).

The conditions of this data set: cited from earlier work.

For the molecule `CNCC1CCC(N)C(OC2C(N)CC(N)C(OC3OCC(C)(O)C(NC)C3O)C2O)O1` (centres unmarked) [XK-62-2], for the setting “acetone”, the solubility in acetone result is “slightly soluble”. The solubility in benzene entry (benzene) was “insoluble”. Also, the solubility in chloroform entry (chloroform) is reported as “insoluble”. In addition, the solubility in ethanol result (ethanol) was “slightly soluble”. For the same molecule, the “solubility in ethyl acetate” value (ethyl acetate) is “insoluble”. The solubility in methanol entry (methanol) is “freely soluble”. The solubility in n-hexane entry (n-hexane) is listed as “insoluble”. For the same molecule, for the setting “water”, the solubility in water entry is on record as “freely soluble”.
